In one series the target is T1, human wt P2X4 receptor (Homo sapiens, UniProt Q99571).
T1 construct: expressed in transfected cells
T1 sequence (Q99571 1-388): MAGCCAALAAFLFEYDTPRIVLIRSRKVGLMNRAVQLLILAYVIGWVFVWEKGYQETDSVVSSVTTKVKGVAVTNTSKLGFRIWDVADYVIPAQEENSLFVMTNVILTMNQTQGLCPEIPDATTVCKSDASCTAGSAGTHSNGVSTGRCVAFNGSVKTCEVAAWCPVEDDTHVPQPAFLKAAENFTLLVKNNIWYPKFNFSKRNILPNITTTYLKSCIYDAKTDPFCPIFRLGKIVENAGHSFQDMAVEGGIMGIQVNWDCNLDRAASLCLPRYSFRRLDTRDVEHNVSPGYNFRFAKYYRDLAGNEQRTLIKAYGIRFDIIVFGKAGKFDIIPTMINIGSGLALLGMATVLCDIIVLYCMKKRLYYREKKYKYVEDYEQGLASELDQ
Description: ATP-induced calcium influx assay, human wt P2X4 receptor in 1321N1 astrocytoma cells. Format: cell-based.

Series [1] deals with T2, human P2X4-E307T receptor mutant (Homo sapiens, UniProt Q99571, E307T).
T2 construct: expressed in transfected cells
T2 sequence (Q99571 1-388 E307T): T1 sequence (Q99571 1-388) with E307T
Description: ATP-induced calcium influx assay, P2X4-E307T mutant in 1321N1 astrocytoma cells. Format: cell-based. Conditions: for Potency increase at P2X4-E307T compared to wt P2X4: ratio of IC50 values, calcium influx.

In a further series the target is T3, human wt P2X2 receptor (Homo sapiens, UniProt Q9UBL9).
T3 construct: expressed in transfected cells
T3 sequence (Q9UBL9 1-471): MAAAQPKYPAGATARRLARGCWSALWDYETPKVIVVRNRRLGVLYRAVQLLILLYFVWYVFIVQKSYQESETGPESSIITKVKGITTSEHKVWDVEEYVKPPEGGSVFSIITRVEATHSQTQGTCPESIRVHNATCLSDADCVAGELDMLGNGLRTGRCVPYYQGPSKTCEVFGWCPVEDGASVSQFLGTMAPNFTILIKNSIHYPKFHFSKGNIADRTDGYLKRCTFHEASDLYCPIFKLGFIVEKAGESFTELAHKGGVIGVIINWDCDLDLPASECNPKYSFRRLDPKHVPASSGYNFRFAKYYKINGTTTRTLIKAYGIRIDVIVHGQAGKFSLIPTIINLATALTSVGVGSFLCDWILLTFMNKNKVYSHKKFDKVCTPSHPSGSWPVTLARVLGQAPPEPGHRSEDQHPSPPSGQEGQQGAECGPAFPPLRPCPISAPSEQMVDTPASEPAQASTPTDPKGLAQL
Kind of series: ATP-induced calcium influx assay, human wt P2X2 receptor in 1321N1 astrocytoma cells. Conditions: for IC50: wt hP2X2. The series is classed as cell-based.

Series [2] can be described thus: Physicochemical properties (water solubility, lipophilicity). Conditions: as stated in words.
The target of series [3] is T4, chimeric P2X4(P2X2) receptor c6^N208-S216 (Homo sapiens, UniProt Q99571, I209R/N208D/S216R/T211D/T212G).
T4 sequence (Q99571 1-388 N208D/I209R/T211D/T212G/S216R): T1 sequence (Q99571 1-388) with N208D, I209R, T211D, T212G, S216R
Conditions: ATP at EC80.

Series [4] concerns the target T5, P2X4-Q308T receptor mutant (Homo sapiens, UniProt Q99571, Q308T).
T5 sequence (Q99571 1-388 Q308T): T1 sequence (Q99571 1-388) with Q308T
Conditions: calcium influx.

In series [5] the target is T6, hP2X4-E307T receptor mutant (Homo sapiens, UniProt Q99571, E307T).
T6 construct: host or cells: Xenopus laevis oocytes injected with cRNA (pNKS2 vector)
T6 sequence (Q99571 1-388 E307T): T1 sequence (Q99571 1-388) with E307T
Kind of series: Two-electrode voltage clamp (TEVC), P2X4-E307T in Xenopus laevis oocytes. Format: cell-based. Conditions: for Inhibition of ATP-induced current: E307T, 10 µM ATP, 2 min preincubation, PSB-0704 3 µM, PSB-0739 300 nM and 1 µM; for IC50: read-out: pIC50 (inhibition of ATP-induced current) (converted). (In two-electrode clamp one electrode senses voltage and the other passes current.)

Series [6] deals with T7, P2X4 receptor mutant E307Q (Homo sapiens, UniProt Q99571, E307Q).
T7 construct: host or cells: Xenopus laevis oocytes injected with cRNA (pNKS2 vector)
Description: TEVC, P2X4-E307Q mutant in Xenopus laevis oocytes. The series is classed as cell-based. Conditions: 10 µM ATP, 2 min preincubation, PSB-0704 3 µM, PSB-0739 300 nM and 1 µM. As to the method: (§1) Xenopus laevis frogs were from Nasco International (Fort Atkinson, WI, USA) and kept at the Core Facility Animal Models (CAM) of the BMC of LMU Munich, Germany (Az: 4.3.2–5682/LMU/BMC/CAM) in accordance with the EU Animal Welfare Act. […] Fifty nanoliters of cRNA (0.5 µg/µL) were injected using a Nanoject II injector (Science Products, Drummond, USA) and oocytes were kept in ND96 (96 mM NaCl, 2 mM KCl, 1 mM MgCl2, 1 mM CaCl2, 5 mM HEPES, pH 7.4–7.5) supplemented with 5 μg/mL gentamicin at 16 °C.
(§2) cDNA encoding human P2X4 receptor (NM_002560.3) was obtained from BioCat GmbH (Heidelberg, Germany) and cloned into the pNKS2 vector[87] using Gibson Assembly (E2621L, New England Biolabs, USA) according to the manufacturer’s instructions. Point mutations were introduced by site-directed mutagenesis using KLD Enzyme Mix (M0554S, New England Biolabs, USA). All constructs were verified by full-length cDNA sequencing (Eurofins Genomics, Germany). Plasmids were linearized with NotI-HF (R3189S, New England Biolabs, USA) and purified using the MinElute Reaction Cleanup Kit (Qiagen, Hilden, Germany). […]
(§3) Statistical analysis was performed with GraphPad Prism version 10 software, and data are presented as means ± SEM. Data were assessed for normality using the Shapiro–Wilk test and for homogeneity of variances using Levene’s test. […]

In series [7] the target is T8, P2X4 receptor mutant E307T_R82A (Homo sapiens, UniProt Q99571, E307T/R82A).
T8 construct: host or cells: Xenopus laevis oocytes injected with cRNA (pNKS2 vector)
Description: TEVC, double mutant E307T_R82A in Xenopus laevis oocytes. The series is classed as cell-based. Conditions: 10 µM ATP, 2 min preincubation. As to the method: as §1, §2, §3

Series [8] concerns the target T9, P2X4 receptor mutant E307T_K298A (Homo sapiens, UniProt Q99571, E307T/K298A).
T9 construct: host or cells: Xenopus laevis oocytes injected with cRNA (pNKS2 vector)
Kind of series: TEVC, double mutant E307T_K298A in Xenopus laevis oocytes. Conditions: 10 µM ATP, 2 min preincubation. The series is classed as cell-based. As to the method: as §1, §2, §3

Series [9] addresses T10, P2X4 receptor mutant E307T_R301A (Homo sapiens, UniProt Q99571, E307T/R301A).
T10 construct: host or cells: Xenopus laevis oocytes injected with cRNA (pNKS2 vector)
Description: TEVC, double mutant E307T_R301A in Xenopus laevis oocytes. Conditions: 10 µM ATP, 2 min preincubation. The series is classed as cell-based. The method, then: as §1, §2, §3

The target of series [10] is T11, P2X4 receptor mutant E307T_R301K (Homo sapiens, UniProt Q99571, E307T/R301K).
T11 construct: host or cells: Xenopus laevis oocytes injected with cRNA (pNKS2 vector)
Kind of series: TEVC, double mutant E307T_R301K in Xenopus laevis oocytes. Format: cell-based. Conditions: 10 µM ATP, 2 min preincubation. The method, then:
as §1, §2, §3

The target of series [11] is T12, chimeric P2X4(P2X2) receptor c10^R301-Q308 (Homo sapiens, UniProt Q99571, A304N/D302K/DEL301-301/E307T/L303I/N306T/Q308T).
T12 construct: expressed in transfected cells; gene synthesis (Geneart), pLVX-IRES-mCherry (bicistronic, mCherry not fused)
T12 sequence (Q99571 with tags, fused parts or gaps DEL301-301/D302K/L303I/A304N/N306T/E307T/Q308T): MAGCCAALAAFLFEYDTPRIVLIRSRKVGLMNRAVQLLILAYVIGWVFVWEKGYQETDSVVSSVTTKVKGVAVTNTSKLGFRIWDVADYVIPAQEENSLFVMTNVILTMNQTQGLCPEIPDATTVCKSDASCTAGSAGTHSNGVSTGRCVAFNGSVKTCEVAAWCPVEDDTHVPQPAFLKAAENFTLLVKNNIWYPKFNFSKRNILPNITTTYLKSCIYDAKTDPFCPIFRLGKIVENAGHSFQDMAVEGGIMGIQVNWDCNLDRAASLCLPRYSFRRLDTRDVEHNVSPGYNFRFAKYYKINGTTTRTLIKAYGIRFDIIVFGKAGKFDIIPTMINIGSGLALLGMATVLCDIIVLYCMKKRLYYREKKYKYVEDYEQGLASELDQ
Kind of series: ATP-induced calcium influx assay, chimeric receptor c10 in 1321N1 astrocytoma cells. Format: cell-based.

Changes are numbered by the printed parent chain. “Also recorded” adds a separate entry of the source. Where two headings read alike, the source gives them in different places.

T11 sequence (Q99571 whole entry R301K/E307T): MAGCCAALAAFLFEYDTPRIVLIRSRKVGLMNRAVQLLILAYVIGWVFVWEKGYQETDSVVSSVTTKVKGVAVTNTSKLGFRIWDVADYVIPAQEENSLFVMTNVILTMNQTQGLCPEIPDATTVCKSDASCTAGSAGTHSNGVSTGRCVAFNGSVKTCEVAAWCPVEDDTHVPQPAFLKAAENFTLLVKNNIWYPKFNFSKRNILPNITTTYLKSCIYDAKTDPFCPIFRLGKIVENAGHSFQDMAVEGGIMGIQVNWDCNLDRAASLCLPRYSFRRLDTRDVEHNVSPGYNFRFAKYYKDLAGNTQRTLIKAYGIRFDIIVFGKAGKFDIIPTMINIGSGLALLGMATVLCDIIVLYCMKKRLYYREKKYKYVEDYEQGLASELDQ
T9 sequence (Q99571 whole entry K298A/E307T): as the sequence (Q99571 whole entry R301K/E307T) above, with K298A, K301R counted along it
T10 sequence (Q99571 whole entry R301A/E307T): as the sequence (Q99571 whole entry R301K/E307T) above, with K301A counted along it
T8 sequence (Q99571 whole entry R82A/E307T): as the sequence (Q99571 whole entry R301K/E307T) above, with R82A, K301R counted along it
T7 sequence (Q99571 whole entry E307Q): as the sequence (Q99571 whole entry R301K/E307T) above, with K301R, T307Q counted along it

`Nc1c(S(=O)(=O)O)cc(Nc2ccc(Nc3nc(Cl)nc(Nc4ccccc4S(=O)(=O)O)n3)c(S(=O)(=O)O)c2)c2c1C(=O)c1ccccc1C2=O` [Cibacron Blue]: the “Enhancement of the ATP effect at low concentrations” value at human wt P2X4 receptor (wt P2X4, ATP at EC80) is “up to 141%”. Besides, the “Kind of modulation (shape of concentration-response curve)” value on human wt P2X4 receptor (wt P2X4, ATP at EC80) is “biphasic modulation”; in series [3], “biphasic modulation”. For the same compound, the “Potency increase at P2X4-E307T compared to wt P2X4” value in series [1] came out at 680 fold. Besides, the “Kind of modulation at an EC20 of ATP” value at human wt P2X2 receptor (P2X2, ATP […] (EC20)) is on record as “no clear activating effect”. The IC50 on human wt P2X2 receptor (ATP at EC80, read-out: IC50) was 13.1 µM; at human wt P2X2 receptor (read-out: pIC50 ± SEM (n value) (converted)), 12.6 µM. For the same compound, in [2], the Water solubility entry is given as “water-soluble”. In addition, the “Potency at P2X4-Q308T compared to wt P2X4” value in series [4] is listed as “similar”.

For the compound `Nc1c(C(=O)O)cc(Nc2ccc(Nc3ccccc3)c(C(=O)O)c2)c2c1C(=O)c1ccccc1C2=O` [PSB-0704], the results for the IC50 (on human wt P2X4 receptor; in series [1]; in series [5]) were 12.5 ± 1.9 µM, 0.0724 ± 0.0102 µM and 1.62 µM, respectively. Moreover, the “Potency increase at P2X4-E307T compared to wt P2X4” value in [1] is recorded as more than 170 fold. In addition, the “Inhibition of ATP-induced current” value in series [5] and in [6] was “strong inhibition” in each case. Also, the “Effect of mutation on antagonist potency (vs E307T)” value was “reduction in inhibitory potency” in [7], “reduction in inhibitory potency” in [8], “reduction in inhibitory potency” in series [9] and “similarly potent; also recorded: no consequences” in series [10]. Besides, in [2], the Water solubility entry is on record as “water-soluble”.

As for `Nc1c(S(=O)(=O)O)cc(Nc2ccc(Nc3ccccc3)c(S(=O)(=O)O)c2)c2c1C(=O)c1ccccc1C2=O` [PSB-0739], the IC50 is 8.91 ± 0.67 µM at human wt P2X4 receptor, 0.0353 ± 0.0047 µM in series [1], 0.00341 ± 0.00049 µM in [11] and 0.324 µM in series [5]. For the same compound, the “Inhibition of ATP-induced current” value in [5] and in series [6] was “strong inhibition” in each case. The “Effect of mutation on antagonist potency (vs E307T)” value in series [7] was “reduction in inhibitory potency”; in series [8], “reduction in inhibitory potency”; in series [9], “reduction in inhibitory potency”; in series [10], “similarly potent; also recorded: no consequences”.

The record behind these values is PMC12678798, “Discovery of an allosteric binding site for anthraquinones at the human P2X4 receptor” (Nature Communications, 2025).
